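Interpolation was linear, between the two tested concentrations surrounding the appropriate level; five concentrations were tested over 48 hours in 96-well plates. GI50 = concentration required for 50% inhibition of growth.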 The source made the active and inactive calls. Cut-off read from the data, not from the text of the source: active = GI50 up to about 1.1 µM and inactive = higher.
Legend:
Assay in all cases: inhibition of tumour cell growth, NCI panel, 48 h
KM12 = test system: KM12
A549 = test system: A549
HCC 2998 = test system: HCC 2998
UACC-62 = test system: UACC-62
NCI/ADR-RES = test system: NCI/ADR-RES
TK-10 = test system: TK-10
HL-60 = test system: HL-60
Malme-3M = test system: Malme-3M
SN12C = test system: SN12C
K562 = test system: K562
UACC-257 = test system: UACC-257
OVCAR-8 = test system: OVCAR-8
PC-3 = test system: PC-3
COLO 205 = test system: COLO 205
SF-539 = test system: SF-539
HT-29 = test system: HT-29
M14 = test system: M14
SNB-19 = test system: SNB-19

Measured: GI50

CN(/N=C(\C(=O)O)c1ccccc1)C1=NCCN1
inactive: KM12 > 100 µM | A549 > 100 µM | HCC 2998 > 100 µM | UACC-62 > 100 µM | NCI/ADR-RES > 100 µM | TK-10 > 100 µM | HL-60 > 100 µM | Malme-3M > 100 µM | SN12C > 100 µM | K562 > 100 µM | UACC-257 > 100 µM | OVCAR-8 > 100 µM | PC-3 > 100 µM | COLO 205 > 100 µM | SF-539 > 100 µM | HT-29 > 100 µM

CC1(C)S[C@@H]2[C@H](NC(=O)/C=C/c3ccccc3)C(=O)N2[C@H]1C(=O)O
inactive: M14 > 100 µM | KM12 > 100 µM | A549 > 100 µM | HCC 2998 > 100 µM | UACC-62 > 100 µM | NCI/ADR-RES > 100 µM | TK-10 > 100 µM | SNB-19 > 100 µM | HL-60 > 100 µM | Malme-3M > 100 µM | SN12C > 100 µM | UACC-257 > 100 µM | OVCAR-8 > 100 µM | PC-3 > 100 µM | COLO 205 > 100 µM | SF-539 > 100 µM | HT-29 > 100 µM

CC(=O)Nc1ccc(S(=O)(=O)/N=c2/sc(S(N)(=O)=O)nn2C)cc1
inactive: M14 > 100 µM | KM12 > 100 µM | A549 > 100 µM | HCC 2998 > 100 µM | UACC-62 > 100 µM | NCI/ADR-RES > 100 µM | TK-10 > 100 µM | SNB-19 > 100 µM | HL-60 > 100 µM | Malme-3M > 100 µM | OVCAR-8 > 100 µM | PC-3 > 100 µM | COLO 205 > 100 µM | SF-539 > 100 µM | HT-29 > 100 µM

COc1ccc(C[n+]2cccc(O)c2)cc1
inactive: M14 > 100 µM | KM12 > 100 µM | A549 > 100 µM | HCC 2998 > 100 µM | UACC-62 > 100 µM | NCI/ADR-RES > 100 µM | TK-10 > 100 µM | SNB-19 > 100 µM | HL-60 > 100 µM | Malme-3M > 100 µM | SN12C > 100 µM | K562 > 100 µM | OVCAR-8 > 100 µM | PC-3 > 100 µM | SF-539 > 100 µM | HT-29 > 100 µM

CSc1ccc(C(=O)C(=O)c2ccc(SC)s2)s1
inactive: M14 > 10 µM | KM12 > 10 µM | A549 > 10 µM | HCC 2998 > 10 µM | UACC-62 > 10 µM | NCI/ADR-RES 8.45 µM | TK-10 > 10 µM | SNB-19 > 10 µM | HL-60 3.43 µM | SN12C > 10 µM | K562 6.32 µM | UACC-257 > 10 µM | OVCAR-8 > 10 µM | PC-3 > 10 µM | COLO 205 > 10 µM | SF-539 4.85 µM | HT-29 > 10 µM

CCCCCCCCCCCCc1ccsc1-c1ccc(-c2ccc(-c3sccc3CCCCCCCCCCCC)s2)s1
inactive: M14 > 100 µM | KM12 > 100 µM | A549 > 100 µM | HCC 2998 > 100 µM | UACC-62 > 100 µM | NCI/ADR-RES > 100 µM | TK-10 > 100 µM | SNB-19 > 100 µM | HL-60 > 100 µM | SN12C > 100 µM | K562 > 100 µM | UACC-257 > 100 µM | OVCAR-8 > 100 µM | PC-3 > 100 µM | COLO 205 > 100 µM | SF-539 > 100 µM | HT-29 > 100 µM

NC(=O)c1nnsc1NN=O
inactive: M14 > 100 µM | KM12 > 100 µM | A549 > 100 µM | HCC 2998 > 100 µM | UACC-62 > 100 µM | NCI/ADR-RES > 100 µM | SNB-19 > 100 µM | HL-60 > 100 µM | Malme-3M > 100 µM | SN12C > 100 µM | K562 > 100 µM | UACC-257 > 100 µM | OVCAR-8 > 100 µM | PC-3 > 100 µM | COLO 205 > 100 µM | SF-539 > 100 µM | HT-29 > 100 µM
